In US12233129B2, “Methods and compositions for the treatment of cancer” (priority 2019, dated 2025):
“Also recorded” adds a separate entry of the source. Where two headings read alike, the source gives them in different places.

Legend:
LoVo = system: LoVo
Description: (§1) Besides the cell viability assay, we decided to measure the apoptotic activity in the above combination therapy.
(§2) Cells were treated with 5-FU (5-100 μM) and etoposide (1-50 μM) along with VTD (30 and 100 μM respectively) in two different set of experiments for 24 hours.
(§3) An MTT (3[4, 5-dimethylthiazol-2-yl]-2, 5-diphenyltetrazolium bromide) assay was performed to measure the viability of cells. Briefly, cells were seeded at a density of 10×10^3 cells per well in phenol-red free growth media. After 24 hours, cells were treated with various concentrations of VTD±5-FU or etoposide. After incubation, an MTT dye was added to the cells for 2-4 hours. The absorbance of samples was measured at 630 nm using an EXL808 absorption spectrophotometer (Biotek, Winooski). The viability of cells was calculated as % of control. Cell detachment and clonogenic survival assays were conducted as previously described. Early apoptosis, caspase-3, cleaved PARP and Sytox Red (Life Technology, NY, USA) were measured by the Accuri C6 flow cytometer system (BD Pharmingen, MD, USA).[54]
(§4) (A-H) (A-C) HCT-116 and (D-F) LoVo were treated with VTD (10-300 μM) for 24, 48, and 72 hours. A suboptimal dose of Etoposide (ETO) ([…]) was added to cells for the last 24 hours only. The viability of cells was determined as % of control (untreated cells) using an MTT assay. […] (G-H) HCT-116 (G) and LoVo (H) cells were treated with VTD (10-200 μM) and a suboptimal dose of ETO (5 μM) for 24 hours. Cells were then stained with Annexin V apoptotic marker. […] (I-L) HCT-116 and LoVo cells were treated with different doses of 5-FU (5-100 μM, I-J) and ETO (1-50 μM, K-L) along with VTD (30 μM and 100 μM respectively) for 24 hours.

HCT-116 = system: HCT-116
Description: as §1, §2, §3, §4

p53 = experiment: Western blot of p53 in cytoplasmic and nuclear fractions of HCT-116 cells; format: cell-based, human; conditions: VTD 10 and 30 μM
Description: We next performed a clonogenic survival assay (S4E) to determine colony formation in cancer cells in the presence and absence of VTD. […] At the same time, we measured the mot-2, p53, and UBXN2A protein levels in all these cell lines. […] To verify whether VTD-induced cell death is mediated through the UBXN2A-mot-2-p53 axis, we looked at the expression of p53 in the cytoplasm and nucleus of HCT-116 cells following VTD treatment. […] Due to a high cell death in higher doses of VTD, we could not use WB analysis for reliable p53 and UBXN2A detection and quantification. Finally, we checked the effect of VTD on non-cancerous cell lines. […]
Nuclear and cytoplasmic fractions were prepared from the cells using NE-PER Nuclear and Cytoplasmic Extraction Reagents (Pierce, IL, USA) according to the manufacturer's instructions. Protein concentrations were determined by BCA assay followed by SDSPAGE and WB analysis with the appropriate antibodies (Supplementary Table S3).
FIG. 17: Induction of apoptosis and in vitro cytotoxicity by VTD in a human cancer cell line with different statuses of p53 and mot-2. […] After incubation, dead cells were washed off, and the remaining attached cells were calculated by counting in five random fields using the Axiovert 200 M inverted microscope and AxioVision software (cell detachment assay). The % of cells attached was calculated as % of control cells. […]

[1] = 5-FU 5-100 μM along with VTD 100 μM, 24 hours
[2] = VTD 10-300 μM 24, 48, 72 hours plus suboptimal etoposide 5 μM for the last 24 hours
[3] = etoposide 1-50 μM along with VTD 30 μM, 24 hours
[4] = higher concentrations of VTD with etoposide 5 μM
[5] = low doses of VTD with etoposide, antagonistic

Structure (SMILES): COc1ccc(C(=O)O[C@H]2CC[C@@]3(C)[C@@H]4CC[C@H]5[C@]6(O)C[C@H](O)[C@@]7(O)[C@@H](CN8C[C@@H](C)CC[C@H]8[C@@]7(C)O)[C@]6(O)C[C@@]53O[C@]24O)cc1OC [VTD, Veratridine]
- combination index (CI) (LoVo; 5-FU 5 μM with 100 μM VTD): 0.32
- cell viability (MTT), 5-FU effect enhanced by VTD (LoVo; [1]): significantly enhanced the 5-FU and etoposide effects on cell viability
- cell viability (MTT), combination (LoVo; [2]): significantly potentiates the cytotoxic effect of VTD
- combination index (CI) (LoVo; etoposide 1 μM with 30 μM VTD): 0.275
- VTD concentration at which VTD and etoposide start to act synergistically (LoVo; etoposide 5 μM): 100 µM
- cell viability (MTT), etoposide effect enhanced by VTD (LoVo; [3]): significantly enhanced the 5-FU and etoposide effects on cell viability
- combination index (CI) (LoVo; [4]): ≤ 0.4
- combination index (CI) (LoVo; [5]): > 1
- combination index (CI) (HCT-116; 5-FU 75 μM combined with 100 μM VTD): 0.165
- combination index (CI) (HCT-116; 5-FU 100 μM combined with 100 μM VTD): 0.109
- cell viability (MTT), 5-FU effect enhanced by VTD (HCT-116; [1]): significantly enhanced the 5-FU and etoposide effects on cell viability
- combination index (CI) (HCT-116; VTD 30 μM with etoposide 5 μM): 0.516
- cell viability (MTT), combination (HCT-116; [2]): significantly potentiates the cytotoxic effect of VTD
- cell viability (MTT), etoposide effect enhanced by VTD (HCT-116; [3]): significantly enhanced the 5-FU and etoposide effects on cell viability
- combination index (CI) (HCT-116; [4]): ≤ 0.4
- combination index (CI) (HCT-116; [5]): > 1
- p53 levels in cytoplasm and nucleus (WB) (p53): increases WT-p53 levels both in the cytoplasm and nucleus; also recorded: increases p53 in both cytoplasm and nucleus compartments in a dose-dependent manner
